{"source": "patent US20090004677A1", "about": "“QUANTITATIVE DETERMINATION OF BCL10” (The Board of Trustees of the University of Illinois, priority 2007, published 2009)", "key": {"IL-8": {"test_system": "IL-8", "experiment": "ELISA for IL-8 in spent media of NCM460 cells", "format": "cell-based, human"}, "Bcl10": {"test_system": "Bcl10", "experiment": "solid-phase sandwich ELISA for Bcl10 in NCM460 cells", "format": "cell-based, human"}, "[1]": {"conditions": "NCM460 cells, 50 μM inhibitor 2 hours prior to 6 hours LPS 10 ng/ml"}, "[2]": {"conditions": "human IEC, LPS 10 ng/ml for 2-6 hours"}}}
{"molecule": "O=C(Nc1nc2ccccc2n1CCN1CCOCC1)c1cccc([N+](=O)[O-])c1", "note": "[IRAK 1/4 inhibitor, N-(2-morpholinylethyl)-2-(3-nitrobenzoylamido)-benzimidazole]", "values": [{"measurement": "IL-8 after LPS with IRAK 1/4 inhibitor", "setting": "IL-8; [1]", "value": "1.14 ± 0.08", "unit": "ng/mL"}, {"measurement": "decline of the LPS-induced increase in IL-8 response", "setting": "IL-8; [1]", "value": 60, "unit": "%"}, {"measurement": "effect on the LPS-induced increase in IL-8 (result in words)", "setting": "IL-8; [2]", "value": "eliminated"}, {"measurement": "Bcl10 after LPS with IRAK 1/4 inhibitor", "setting": "Bcl10; [1]", "value": "2.36 ± 0.08", "unit": "ng/mL"}, {"measurement": "decline of the LPS-induced increase in Bcl10", "setting": "Bcl10; [1]", "value": 73, "unit": "%"}, {"measurement": "effect on the LPS-induced increase in Bcl10 (result in words)", "setting": "Bcl10; [2]", "value": "eliminated"}]}
